Measurements reported in patent US9725445B2, “Cycloalkyl nitrile pyrazolo pyridones as Janus kinase inhibitors” (Merck Sharp & Dohme Corp., priority 2013, dated 2017).

Columns and labels:
JAK1 = JAK1 (Homo sapiens (Human), UniProt P23458); experiment: Jak biochemical HTRF assay, JAK1; conditions: HTRF biochemical assay, recombinant GST-tagged catalytic domain; read-out: JAK1 IC50
JAK2 = JAK2 (Homo sapiens (Human), UniProt O60674); experiment: Jak biochemical HTRF assay, JAK2; conditions: HTRF biochemical assay, recombinant GST-tagged catalytic domain; read-out: JAK2 IC50
Sequence of JAK2 (O60674 849-1124): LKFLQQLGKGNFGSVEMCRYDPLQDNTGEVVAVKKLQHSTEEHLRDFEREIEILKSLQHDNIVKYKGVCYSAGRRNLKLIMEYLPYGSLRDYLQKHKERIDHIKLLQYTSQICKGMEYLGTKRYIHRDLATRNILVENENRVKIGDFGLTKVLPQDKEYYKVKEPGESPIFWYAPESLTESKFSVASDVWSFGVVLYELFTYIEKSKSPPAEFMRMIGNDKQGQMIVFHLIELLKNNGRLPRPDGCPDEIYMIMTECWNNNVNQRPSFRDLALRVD

Sequence of JAK1 (P23458 875-1153): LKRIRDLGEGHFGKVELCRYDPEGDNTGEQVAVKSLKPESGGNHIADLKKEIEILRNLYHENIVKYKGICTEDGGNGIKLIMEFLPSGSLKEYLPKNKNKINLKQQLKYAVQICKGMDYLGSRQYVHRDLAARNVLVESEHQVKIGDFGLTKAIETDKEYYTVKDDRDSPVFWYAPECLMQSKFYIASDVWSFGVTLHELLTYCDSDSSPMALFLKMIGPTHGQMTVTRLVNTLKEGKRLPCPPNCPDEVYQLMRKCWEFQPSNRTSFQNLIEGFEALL

For `N#C[C@H]1CCCCC[C@@H]1n1nc(Nc2ccc3c(c2)CN(C2CCOCC2)S3(=O)=O)c2c(=O)[nH]ccc21` (single isomer, unassigned) [Example 15-54, (1S,2S or 1R,2R)-2-(3-{[1,1-dioxido-2-(tetrahydro-2H-pyran-4-yl)-2,3-dihydro-1,2-benzisothiazol-5-yl]amino}-4-oxo-4,5-dihydro-1H-pyrazolo[4,3-c]pyridin-1-yl)cycloheptanecarbonitrile], the IC50 (JAK1) was 0.081 nM and the IC50 (JAK2) was 0.4 nM.
Work on `N#C[C@H]1CCCC[C@@H]1n1nc(Nc2ccc(-c3ccno3)cc2)c2c(=O)[nH]ccc21` [Example 15-5, (1S,2S)-2-{3-[(4-isoxazol-5-ylphenyl)amino]-4-oxo-4,5-dihydro-1H-pyrazolo[4,3-c]pyridin-1-yl}cyclohexanecarbonitrile] yielded an IC50 (JAK1) of 0.32 nM and an IC50 (JAK2) of 3.2 nM.
In the case of `CN(C)[C@H]1CC[C@H](n2nc(Nc3ccc(OC(F)(F)F)cc3)c3c(=O)[nH]ccc32)[C@@H](C#N)C1` [Example 5-26, (1S,2S,5S)-5-(dimethylamino)-2-(4-oxo-3-((4-(trifluoromethoxy)phenyl)amino)-4,5-dihydro-1H-pyrazolo[4,3-c]pyridin-1-yl)cyclohexanecarbonitrile], the IC50 (JAK1) is reported as 0.33 nM and the IC50 (JAK2) is reported as 7 nM.
For `N#C[C@H]1CCCC[C@@H]1n1nc(Nc2ccc3c(c2)CN(CC2CCCC2)C3)c2c(=O)[nH]ccc21` [Example 3-162, (1S,2S)-2-(3-{[2-(cyclopentylmethyl)-2,3-dihydro-1H-isoindol-5-yl]amino}-4-oxo-4,5-dihydro-1H-pyrazolo[4,3-c]pyridin-1-yl)cyclohexanecarbonitrile], the IC50 (JAK1) was 0.33 nM and the IC50 (JAK2) was 0.92 nM.
`N#C[C@H]1CCCC[C@@H]1n1nc(Nc2ccc3c(c2)CNC3C(F)F)c2c(=O)[nH]ccc21` (single isomer, unassigned) [Example 15-27, (1S,2S)-2-(3-{[(1R or 1S)-1-(difluoromethyl)-2,3-dihydro-1H-isoindol-5-yl]amino}-4-oxo-4,5-dihydro-1H-pyrazolo[4,3-c]pyridin-1-yl)cyclohexanecarbonitrile] gave an IC50 (JAK1) of 0.22 nM and an IC50 (JAK2) of 0.72 nM.
With `CS(=O)(=O)c1ccc(Nc2nn([C@@H]3CCCC[C@H]3C#N)c3cc[nH]c(=O)c23)cc1` [Example 3-4, (1R,2R)-2-(3-{[4-(methylsulfonyl)phenyl]amino}-4-oxo-4,5-dihydro-1H-pyrazolo[4,3-c]pyridin-1-yl)cyclohexanecarbonitrile] the IC50 (JAK1) was 9.4 nM and the IC50 (JAK2) was 16 nM.
Work on `CC(C)(C)OC(=O)NCc1ccc(Nc2nn([C@H]3CCCC[C@@H]3C#N)c3cc[nH]c(=O)c23)cc1` [Example 3-32, tert-butyl [4-({1-[(1S,2S)-2-cyanocyclohexyl]-4-oxo-4,5-dihydro-1H-pyrazolo[4,3-c]pyridin-3-yl}amino)benzyl]carbamate] yielded an IC50 (JAK1) of 0.45 nM and an IC50 (JAK2) of 1.5 nM.
In the case of `N#C[C@H]1CCCC[C@@H]1n1nc(Nc2ccc3c(c2)CNC3)c2c(=O)[nH]ccc21` [Example 12-1, (1S,2S)-2-(3-(Isoindolin-5-ylamino)-4-oxo-4,5-dihydro-H-pyrazolo[4,3-c]pyridin-1-yl)cyclohexanecarbonitrile], the IC50 (JAK1) is reported as 0.31 nM and the IC50 (JAK2) is reported as 0.86 nM.
`CC(C)CN1Cc2ccc(Nc3nn([C@H]4CCCC[C@@H]4C#N)c4cc[nH]c(=O)c34)cc2C1` [Example 3-75, (1S,2S)-2-(3-{[2-(2-methylpropyl)-2,3-dihydro-1H-isoindol-5-yl]amino}-4-oxo-4,5-dihydro-1H-pyrazolo[4,3-c]pyridin-1-yl)cyclohexanecarbonitrile] was tested, and the IC50 (JAK1) was 0.28 nM and the IC50 (JAK2) was 0.68 nM.
With `CC(C)(c1ccc(Nc2nn([C@H]3CCCC[C@@H]3C#N)c3cc[nH]c(=O)c23)cc1)n1ccnn1` [Example 3-147, (1S,2S)-2-[3-({4-[1-methyl-1-(1H-1,2,3-triazol-1-yl)ethyl]phenyl}amino)-4-oxo-4,5-dihydro-1H-pyrazolo[4,3-c]pyridin-1-yl]cyclohexanecarbonitrile] the IC50 (JAK1) was 0.17 nM and the IC50 (JAK2) was 0.5 nM.
With `CC(C)C(c1ccc(Nc2nn([C@H]3CCCC[C@@H]3C#N)c3cc[nH]c(=O)c23)cc1)n1cc(C(=O)OC(C)(C)C)nn1` (single isomer, unassigned) [Example 15-57, tert-butyl 1-{(1S or 1R)-1-[4-({1-[(1S,2S)-2-cyanocyclohexyl]-4-oxo-4,5-dihydro-1H-pyrazolo[4,3-c]pyridin-3-yl}amino)phenyl]-2-methylpropyl}-1H-1,2,3-triazole-4-carboxylate] the IC50 (JAK1) was 0.62 nM and the IC50 (JAK2) was 1.2 nM.
With `CC(C)(C)S(=O)(=O)c1ccc(Nc2nn([C@H]3CCC[C@@H]3C#N)c3cc[nH]c(=O)c23)cc1` [Example 3-106, (1S,2S)-2-(3-{[4-(tert-butylsulfonyl)phenyl]amino}-4-oxo-4,5-dihydro-1H-pyrazolo[4,3-c]pyridin-1-yl)cyclopentanecarbonitrile] the IC50 (JAK1) was 0.12 nM and the IC50 (JAK2) was 0.36 nM.
Molecule `N#C[C@H]1CCCC[C@@H]1n1nc(Nc2ccc(-c3cnco3)cc2)c2c(=O)[nH]ccc21` [Example 15-8, (1S,2S)-2-(3-{[4-(1,3-oxazol-5-yl)phenyl]amino}-4-oxo-4,5-dihydro-1H-pyrazolo[4,3-c]pyridin-1-yl)cyclohexanecarbonitrile] has an IC50 (JAK1) of 0.14 nM and an IC50 (JAK2) of 0.27 nM.
Work on `Cc1cc(Nc2nn([C@H]3CCCCC[C@@H]3C#N)c3cc[nH]c(=O)c23)ccc1C(=O)N1CCCC1` (single isomer, unassigned) [Example 15-47, (1S,2S or 1R,2R)-2-(3-{[3-methyl-4-(pyrrolidin-1-ylcarbonyl)phenyl]amino}-4-oxo-4,5-dihydro-1H-pyrazolo[4,3-c]pyridin-1-yl)cycloheptanecarbonitrile] yielded an IC50 (JAK1) of 19 nM and an IC50 (JAK2) of 14 nM.
In the case of `N#C[C@H]1CCC[C@@H]1n1nc(Nc2ccc3c(c2)CN(CC(F)(F)F)S3(=O)=O)c2c(=O)[nH]ccc21` [Example 3-101, (1S,2S)-2-(3-{[1,1-dioxido-2-(2,2,2-trifluoroethyl)-2,3-dihydro-1,2-benzisothiazol-5-yl]amino}-4-oxo-4,5-dihydro-1H-pyrazolo[4,3-c]pyridin-1-yl)cyclopentanecarbonitrile], the IC50 (JAK1) is reported as 0.056 nM and the IC50 (JAK2) is reported as 0.5 nM.
`CC1(N2Cc3cc(Nc4nn([C@H]5CCCC[C@@H]5C#N)c5cc[nH]c(=O)c45)ccc3C2=O)CCOCC1` [Example 15-63, (1S,2S)-2-(3-{[2-(4-methyltetrahydro-2H-pyran-4-yl)-1-oxo-2,3-dihydro-1H-isoindol-5-yl]amino}-4-oxo-4,5-dihydro-1H-pyrazolo[4,3-c]pyridin-1-yl)cyclohexanecarbonitrile] was tested, and the IC50 (JAK1) was 0.062 nM and the IC50 (JAK2) was 0.14 nM.
`N#C[C@H]1CCCC[C@@H]1n1nc(Nc2ccc3c(c2)CN([C@H]2CC[C@H](C(=O)O)CC2)S3(=O)=O)c2c(=O)[nH]ccc21` [Example 16-3, (1R,4R)-4-(5-((1-((1S,2S)-2-cyanocyclohexyl)-4-oxo-4,5-dihydro-1H-pyrazolo[4,3-c]pyridin-3-yl)amino)-1,1-dioxidobenzo[d]isothiazol-2(3H)-yl)cyclohexanecarboxylic acid] was tested, and the IC50 (JAK1) was 0.059 nM and the IC50 (JAK2) was 0.14 nM.
Molecule `CN(C)[C@@H]1CC[C@H](n2nc(Nc3ccc(Cl)cc3)c3c(=O)[nH]ccc32)[C@@H](C#N)C1` [Example 5-15, (1S,2S,5R)-2-(3-((4-chlorophenyl)amino)-4-oxo-4,5-dihydro-1H-pyrazolo[4,3-c]pyridin-1-yl)-5-(dimethylamino)cyclohexanecarbonitrile] has an IC50 (JAK1) of 0.28 nM and an IC50 (JAK2) of 11 nM.
`Cn1cc(-c2ccc(Nc3nn([C@H]4CCCC[C@@H]4C#N)c4cc[nH]c(=O)c34)cc2Cl)cn1` [Example 3-146, (1S,2S)-2-(3-{[3-chloro-4-(1-methyl-1H-pyrazol-4-yl)phenyl]amino}-4-oxo-4,5-dihydro-1H-pyrazolo[4,3-c]pyridin-1-yl)cyclohexanecarbonitrile] gave an IC50 (JAK1) of 0.29 nM and an IC50 (JAK2) of 6.4 nM.
In the case of `CN1Cc2cc(Nc3nn([C@H]4CCCC[C@@H]4C#N)c4cc[nH]c(=O)c34)ccc2S1(=O)=O` [Example 3-49, (1S,2S)-2-{3-[(2-methyl-1,1-dioxido-2,3-dihydro-1,2-benzisothiazol-5-yl)amino]-4-oxo-4,5-dihydro-1H-pyrazolo[4,3-c]pyridin-1-yl}cyclohexanecarbonitrile], the IC50 (JAK1) is reported as 0.026 nM and the IC50 (JAK2) is reported as 0.29 nM.
`N#C[C@H]1CCCC[C@@H]1n1nc(Nc2cccc([C@H](N)C(F)(F)F)c2)c2c(=O)[nH]ccc21` [Example 7-1, (1S,2S)-2-(3-((3-((S)-1-Amino-2,2,2-trifluoroethyl)phenyl)amino)-4-oxo-4,5-dihydro-H-pyrazolo[4,3-c]pyridin-1-yl)cyclohexanecarbonitrileecarbonitrile] showed an IC50 (JAK1) of 0.61 nM and an IC50 (JAK2) of 1.5 nM.
For `CN(C)C(=O)c1ccc(Nc2nn([C@H]3CCCC[C@@H]3C#N)c3cc[nH]c(=O)c23)cc1C1CC1` [Example 3-69, 4-({1-[(1S,2S)-2-cyanocyclohexyl]-4-oxo-4,5-dihydro-1H-pyrazolo[4,3-c]pyridin-3-yl}amino)-2-cyclopropyl-N,N-dimethylbenzamide], the IC50 (JAK1) was 2.1 nM and the IC50 (JAK2) was 5.7 nM.
For `N#C[C@H]1CCCC[C@@H]1n1nc(Nc2ccc(Cn3nccn3)cc2)c2c(=O)[nH]ccc21` [Example 3-45, (1S,2S)-2-(4-oxo-3-{[4-(2H-1,2,3-triazol-2-ylmethyl)phenyl]amino}-4,5-dihydro-1H-pyrazolo[4,3-c]pyridin-1-yl)cyclohexanecarbonitrile], the IC50 (JAK1) was 0.37 nM and the IC50 (JAK2) was 0.42 nM.
`CC(=O)NCc1cc(Nc2nn([C@H]3CCCC[C@@H]3C#N)c3cc[nH]c(=O)c23)ccc1S(=O)(=O)N(C)C` [Example 3-40, N-[5-({1-[(1S,2S)-2-cyanocyclohexyl]-4-oxo-4,5-dihydro-1H-pyrazolo[4,3-c]pyridin-3-yl}amino)-2-(dimethylsulfamoyl)benzyl]acetamide] showed an IC50 (JAK1) of 0.1 nM and an IC50 (JAK2) of 0.79 nM.
`N#C[C@@H]1C[C@H](N2CCC2)CC[C@H]1n1nc(Nc2ccc(C(F)(F)F)cc2)c2c(=O)[nH]ccc21` [Example 5-10, (1R,2R,5R)-5-(azetidin-1-yl)-2-(4-oxo-3-((4-(trifluoromethyl)phenyl)amino)-4,5-dihydro-1H-pyrazolo[4,3-c]pyridin-1-yl)cyclohexanecarbonitrile] showed an IC50 (JAK1) of 37 nM and an IC50 (JAK2) of 940 nM.
